US9630977B2, “Cephalosporin derivatives and pharmaceutical compositions thereof” (Legochem Biosciences, Inc., priority 2011, dated 2017)
Values after ≈ are worked out from the molar mass of the structure shown. Like-named read-outs stand apart in the source and are kept apart here.

Experiments:
Experiment in all cases: In vitro antibacterial activity test (broth microdilution)
Format in all cases: cell-based
[1] = system: A. baumannii 49
Procedure: (§1) To evaluate antibacterial activity of each of the compounds of Examples 1 to 68, in vitro antibacterial activity test was performed.
(§2) The in vitro antibacterial activity was evaluated by measuring MIC90 (ug/mL) of each of the compounds of Examples 1 to 68, which is defined as the lowest concentration of an antibiotic that will inhibit the visible growth of 90% of microorganisms after incubation as compared with a control group to which the antibiotic is not treated. MIC90 values were measured by the broth microdilution method developed by the Clinical and Laboratory Standards Institute (CLSI) (see CLSI M7-A5, Methods for Dilution Antimicrobial Susceptibility Test for Bacteria that Grow Aerobically-Fifth Edition (2000): CLSI, Villanova, Pa.).
(§3) In vitro antibacterial activity was measured with respect to the following 19 clinical isolates: M. catarrhalis; P. aeruginosa (5 strains); K. pneumoniae (6 strains); A. baumannii (3 strains); E. coli (2 strains); A. calcoaceticus; and E. cloacae.
(§4) Test compounds each (the cephalosporin derivative compounds prepared in Examples 1 to 68) were dissolved in DMSO at the concentration of 10,240 ug/mL, were diluted by two fold with DMSO, and then were diluted by twenty fold with sterilized distilled water. The final concentration in the antibacterial activity test was in the range of […] to 128 ug/mL, and the final concentration of DMSO used as an adjuvant was 2.5% (V/V).

[2] = system: P. aeruginosa 37
Procedure: as §1, §2, §3, §4

[3] = system: A. baumannii 46
Procedure: as §1, §2, §3, §4

[4] = system: P. aeruginosa 43; conditions: Pseudomonas aeruginosa
Procedure: as §1, §2, §3, §4

[5] = system: E. coli β4
Procedure: as §1, §2, §3, §4

[6] = system: M. catarrhalis 2524; conditions: Moraxella catarrhalis; M. catarrhalis 2524; read-out: MIC90
Procedure: as §1, §2, §3, §4

[7] = system: P. aeruginosa 6065Y
Procedure: as §1, §2, §3, §4

[8] = system: P. aeruginosa 40
Procedure: as §1, §2, §3, §4

[9] = system: A. baumannii 52
Procedure: as §1, §2, §3, §4

[10] = system: A. calcoaceticus ATCC15473
Procedure: as §1, §2, §3, §4

[11] = system: K. pneumoniae β14
Procedure: as §1, §2, §3, §4

[12] = system: E. cloacae β19
Procedure: as §1, §2, §3, §4

[13] = system: E. coli AG100
Procedure: as §1, §2, §3, §4

[14] = system: P. aeruginosa 1912E
Procedure: as §1, §2, §3, §4

[15] = system: K. pneumoniae 2011E
Procedure: as §1, §2, §3, §4

[16] = Acinetobacter baumannii, A. baumannii 49, read-out: MIC90
[17] = Pseudomonas aeruginosa, 37, P. aeruginosa 37, read-out: MIC90
[18] = Acinetobacter baumannii, A. baumannii 46, read-out: MIC90
[19] = P. aeruginosa 43, read-out: MIC90
[20] = Escherichia coli, read-out: MIC90
[21] = Pseudomonas aeruginosa, read-out: MIC90
[22] = Pseudomonas aeruginosa, 40, P. aeruginosa 40, read-out: MIC90
[23] = Acinetobacter baumannii, A. baumannii 52, read-out: MIC90
[24] = Acinetobacter calcoaceticus, A. calcoaceticus ATCC15473, read-out: MIC90
[25] = Klebsiella pneumoniae, read-out: MIC90
[26] = Enterobacter cloacae, read-out: MIC90
[27] = Escherichia coli, AG100, E. coli AG100, read-out: MIC90
[28] = Pseudomonas aeruginosa, 1912E, read-out: MIC90
[29] = Klebsiella pneumoniae, 2011E, K. pneumoniae 2011E, read-out: MIC90
[30] = Acinetobacter baumannii, 49, A. baumannii 49
[31] = Pseudomonas aeruginosa, 37, P. aeruginosa 37
[32] = Acinetobacter baumannii, 46, A. baumannii 46
[33] = Acinetobacter calcoaceticus, ATCC15473, A. calcoaceticus ATCC15473

Row | SMILES | MIC90 [1, 16] [µg/mL] | MIC90 [2, 17] [µg/mL] | MIC90 [3, 18] [µg/mL] | MIC90 [4, 19] [µg/mL] | MIC90 [5, 20] [µg/mL] | MIC90 [6] [µg/mL] | MIC90 [7, 21] [µg/mL] | MIC90 [8, 22] [µg/mL] | MIC90 [9, 23] [µg/mL] | MIC90 [10, 24] [µg/mL] | MIC90 [11, 25] [µg/mL] | MIC90 [12, 26] [µg/mL] | MIC90 [13, 27] [µg/mL] | MIC90 [14, 28] [µg/mL] | MIC90 [15, 29] [µg/mL] | also measured
1 | Cn1cc(O)c(=O)cc1C(=O)NCCNc1c[n+](CC2=C(C(=O)[O-])N3C(=O)[C@@H](NC(=O)/C(=N\OC(C)(C)C(=O)O)c4csc(N)n4)C3SC2)cnc1N (stereo partly shown) [Compound 2] | > 128 | 4 (≈ 5.18 µM) | 4 (≈ 5.18 µM) | 8 (≈ 10.4 µM) | 4 (≈ 5.18 µM) | 1 (≈ 1.3 µM) | 16 (≈ 20.7 µM) | 4 (≈ 5.18 µM) | > 128 | 2 (≈ 2.59 µM) | 64 (≈ 82.9 µM) | > 128 | 0.25 (≈ 0.324 µM) | 2 (≈ 2.59 µM) | 4 (≈ 5.18 µM) | –
2 | CC(C)(O/N=C(\C(=O)N[C@@H]1C(=O)N2C(C(=O)[O-])=C(C[n+]3cnc(N)c(NCCN)c3)CSC12)c1csc(N)n1)C(=O)O (stereo partly shown) [Compound 49] | – | – | – | – | – | – | – | – | – | – | – | – | – | – | – | MIC90 ([1]; A. baumannii 49): 64 µg/mL (≈ 103 µM); MIC90 ([2]; P. aeruginosa 37): 8 µg/mL (≈ 12.9 µM); MIC90 ([3]; A. baumannii 46): 8 µg/mL (≈ 12.9 µM); MIC90 [4]; 43: > 128 µg/mL; MIC90 [5]: 8 µg/mL (≈ 12.9 µM); MIC90 [7]: 16 µg/mL (≈ 25.8 µM); MIC90 ([8]; P. aeruginosa 40): 4 µg/mL (≈ 6.44 µM); MIC90 ([9]; A. baumannii 52): 64 µg/mL (≈ 103 µM); MIC90 ([10]; A. calcoaceticus ATCC15473): 2 µg/mL (≈ 3.22 µM); MIC90 [11]: 32 µg/mL (≈ 51.6 µM); MIC90 [12]: 32 µg/mL (≈ 51.6 µM); MIC90 ([13]; E. coli AG100): 4 µg/mL (≈ 6.44 µM); MIC90 [14]: 2 µg/mL (≈ 3.22 µM); MIC90 ([15]; K. pneumoniae 2011E): 8 µg/mL (≈ 12.9 µM)
3 | C[C@H](O/N=C(\C(=O)N[C@@H]1C(=O)N2C(C(=O)[O-])=C(C[n+]3cnc(N)c(NCCNC(=O)c4ccc(O)c(O)c4)c3)CSC12)c1csc(N)n1)C(=O)O (stereo partly shown) [Compound 34] | 128 (≈ 172 µM) | 2 (≈ 2.69 µM) | 2 (≈ 2.69 µM) | 0.5 (≈ 0.673 µM) | 1 (≈ 1.35 µM) | 1 (≈ 1.35 µM) | 1 (≈ 1.35 µM) | 0.5 (≈ 0.673 µM) | 128 (≈ 172 µM) | 0.5 (≈ 0.673 µM) | 128 (≈ 172 µM) | 16 (≈ 21.5 µM) | < 0.0625 | 32 (≈ 43.1 µM) | 0.25 (≈ 0.337 µM) | –
4 | C[C@H](O/N=C(\C(=O)N[C@@H]1C(=O)N2C(C(=O)[O-])=C(C[n+]3cnc(N)c(NCCNC(=O)c4ccc(O)c(O)c4)c3)CSC12)c1nc(N)sc1Cl)C(=O)O (stereo partly shown) [Compound 35] | 4 (≈ 5.15 µM) | 0.25 (≈ 0.322 µM) | 4 (≈ 5.15 µM) | 1 (≈ 1.29 µM) | 1 (≈ 1.29 µM) | < 0.0625 | 2 (≈ 2.57 µM) | 1 (≈ 1.29 µM) | 2 (≈ 2.57 µM) | 0.5 (≈ 0.643 µM) | 16 (≈ 20.6 µM) | 0.5 (≈ 0.643 µM) | < 0.0625 | 2 (≈ 2.57 µM) | 2 (≈ 2.57 µM) | –
5 | CC(C)(O/N=C(\C(=O)N[C@@H]1C(=O)N2C(C(=O)[O-])=C(C[n+]3cnc(N)c(NCCCNC(=O)c4ccc(O)c(O)c4)c3)CSC12)c1csc(N)n1)C(=O)O (stereo partly shown) [Compound 31] | 32 (≈ 41.5 µM) | 1 (≈ 1.3 µM) | 4 (≈ 5.19 µM) | 1 (≈ 1.3 µM) | 8 (≈ 10.4 µM) | 1 (≈ 1.3 µM) | 4 (≈ 5.19 µM) | 2 (≈ 2.59 µM) | 64 (≈ 83 µM) | 1 (≈ 1.3 µM) | 32 (≈ 41.5 µM) | 16 (≈ 20.8 µM) | 0.25 (≈ 0.324 µM) | 1 (≈ 1.3 µM) | 8 (≈ 10.4 µM) | –
6 | CC(C)(O/N=C(\C(=O)N[C@@H]1C(=O)N2C(C(=O)[O-])=C(C[n+]3cnc(N)c(NCCN)c3)CSC12)c1csc(N)n1)C(=O)O (stereo partly shown) [Compound 37] | – | – | – | – | – | – | – | – | – | – | – | – | – | – | – | MIC90 [1, 30]: 128 µg/mL (≈ 206 µM); MIC90 [2, 31]: 16 µg/mL (≈ 25.8 µM); MIC90 [3, 32]: 4 µg/mL (≈ 6.44 µM); MIC90 ([5]; Escherichia coli): 4 µg/mL (≈ 6.44 µM); MIC90 ([7]; Pseudomonas aeruginosa, 6065Y): 8 µg/mL (≈ 12.9 µM); MIC90 ([8]; Pseudomonas aeruginosa, 40): 4 µg/mL (≈ 6.44 µM); MIC90 ([9]; Acinetobacter baumannii, 52): 64 µg/mL (≈ 103 µM); MIC90 [10, 33]: 1 µg/mL (≈ 1.61 µM); MIC90 ([11]; Klebsiella pneumoniae): 16 µg/mL (≈ 25.8 µM); MIC90 ([12]; Enterobacter cloacae): 16 µg/mL (≈ 25.8 µM); MIC90 ([13]; Escherichia coli, AG100): 4 µg/mL (≈ 6.44 µM); MIC90 ([14]; Pseudomonas aeruginosa, 1912E): 4 µg/mL (≈ 6.44 µM); MIC90 ([15]; Klebsiella pneumoniae, 2011E): 8 µg/mL (≈ 12.9 µM)
7 | CC(C)(O/N=C(\C(=O)N[C@@H]1C(=O)N2C(C(=O)[O-])=C(C[n+]3cnc(N)c(NC(=O)CCN)c3)CSC12)c1csc(N)n1)C(=O)O (stereo partly shown) [Compound 48] | – | – | – | – | – | – | – | – | – | – | – | – | – | – | – | MIC90 [1, 30]: 128 µg/mL (≈ 197 µM); MIC90 [2, 31]: 64 µg/mL (≈ 98.7 µM); MIC90 [3, 32]: 8 µg/mL (≈ 12.3 µM); MIC90 ([5]; Escherichia coli): 2 µg/mL (≈ 3.08 µM); MIC90 ([7]; Pseudomonas aeruginosa, 6065Y): 16 µg/mL (≈ 24.7 µM); MIC90 ([8]; Pseudomonas aeruginosa, 40): 8 µg/mL (≈ 12.3 µM); MIC90 ([9]; Acinetobacter baumannii, 52): 128 µg/mL (≈ 197 µM); MIC90 [10, 33]: 0.5 µg/mL (≈ 0.771 µM); MIC90 ([11]; Klebsiella pneumoniae): 16 µg/mL (≈ 24.7 µM); MIC90 ([12]; Enterobacter cloacae): 128 µg/mL (≈ 197 µM); MIC90 ([13]; Escherichia coli, AG100): 2 µg/mL (≈ 3.08 µM); MIC90 ([14]; Pseudomonas aeruginosa, 1912E): 8 µg/mL (≈ 12.3 µM); MIC90 ([15]; Klebsiella pneumoniae, 2011E): 4 µg/mL (≈ 6.17 µM)
